# pIC50, pKd: −log10 of the molar value.
# Key:
# [1] = tested on: NIH3T3 cells expressing NRAS G12V; assay: Soft agar colony growth assay, NRAS G12V; format: cell-based
# Procedure: (§1) Soft agar colony growth assay was performed as previously described. The colonies were counted using Image-Pro Plus 7.0 software (Media Cybernetics). ATA cytotoxicity was assessed using the CyQUANT LDH Cytotoxicity Assay Kit (ThermoFisher) and was performed as per the manufacturer’s protocol.
# HEK293 cells = assay: LDH cytotoxicity assay, HEK293; format: cell-based; conditions: HEK293, concentrations used
# Procedure: as §1
# NIH3T3 and HEK293 cells were treated with the indicated concentrations of ATA and the cytotoxicity was evaluated by calculating the amount of intracellular LDH released into the media. LDH absorbance after complete cell lysis is considered as 100% cytotoxicity and the absorbance after ATA treatment was normalized accordingly. (TIF) Click here for additional data file.
# [2] = target: T1, YAP-TEAD complex (human YAP (61-100) probe, human TEAD4 (217-434)) (Homo sapiens, UniProt Q15561); assay: YAP-TEAD fluorescence polarization assay; format: binding; conditions: TEAD4 350 nM, YAP probe 25 nM; read-out: IC50, YAP-TEAD FP assay
# T1 construct: made in house
# Procedure: Human YAP (61–100), human TAZ (23–57) and mouse Vgll1 (26–51) peptide probes were used; all the probes had carboxyfluorescein labels. Human TEAD4 (217–434) was used in the assay at a concentration of 350 nM and the peptide probe concentration was 25 nM. Disruptors were titrated at concentrations ranging from 0–150 μM to the probe-TEAD complex, and the mixtures were incubated at 25°C for 20 min. Then, polarization measurements were taken using a Victor3 (PerkinElmer) plate reader.
# [3] = target: T2, TAZ-TEAD complex (full-length His-TAZ and FLAG-TEAD4) (Homo sapiens, UniProt Q15561); assay: TAZ-TEAD AlphaLISA assay; format: binding; conditions: 10 nM TAZ, 15 nM TEAD4
# T2 construct: human TEAD4 (1–434) (UniProt—Q15561); strep (N, cleaved yes); made in house; host or cells: Escherichia coli BL21(DE3)pLysS
# Source text: The cDNAs of human TEAD4 (1–434) (UniProt—Q15561) and TAZ (UniProt—Q9GZV5) were codon-optimized according to a proprietary algorithm developed by DAPCEL, Inc, synthesized, and inserted into the pET-3a vector between restriction sites NdeI and BamHI (GenScript). The final construct contained a N-terminal strep-TEV-FLAG tag for TEAD4, a 6x His tag at the N-terminus and a strep tag at the C-terminus of TAZ (GenScript).
# Full-length TAZ and TEAD proteins were used in this assay. The codon-optimized cDNAs yielded sufficient protein amounts to carry out the high-throughput screen (S1A Fig).
# Purified full-length His-TAZ and FLAG-TEAD4 proteins were mixed with nickel chelate AlphaLISA Acceptor Beads and anti-FLAG Alpha Donor Beads (PerkinElmer) in alpha assay buffer (10mM Tris pH 8.0, 150mM NaCl, 0.1% BSA, 0.01% Tween 20, 10 mM DTT). To determine the optimum protein concentration that produced the highest total signal intensity, His-TAZ was used at a concentration range of 0 nM to 20 nM and FLAG-TEAD4 at 0.1 nM to 1000 nM. The maximal signal occurred at 10 nM TAZ and 15 nM TEAD4 (S1B Fig). Then, compounds from the library plates were added at a final concentration of 10 μM. The mixtures were incubated in the dark for 2h at room temperature and emission at 615 nm was measured using the alpha-compatible EnSpire (PerkinElmer) and Synergy Neo2 (BioTek) multimode plate readers. […]
# [4] = target: T3, YAP/TAZ-binding domain of human TEAD4 (217-434), deacylated (Homo sapiens, UniProt Q15561); assay: Surface plasmon resonance; conditions: one-site binding fit of steady-state response versus concentration; read-out: Kd, affinity between TEAD and ATA
# T3 construct: made in house
# Procedure: The YAP/TAZ-binding domain of human TEAD4 (217–434) was deacylated and resuspended in 10 mM acetate buffer pH 5.0. TEAD was immobilized on a CM5 sensor chip (Cytiva, product, BR100530) using the amine coupling kit (Cytiva, product, BR10050) as per manufacturer’s guidelines. Various concentrations of ATA were dissolved in buffer containing 20 mM Tris pH 8.0, 150 mM NaCl, 1.5% DMSO and passed over the reference cell and the cell containing immobilized TEAD, and the resonance responses were recorded.
# [5] = tested on: TC/TEAD transcriptional activity in HEK293 cells expressing TAZ-CAMTA1; assay: TC/TEAD dual luciferase reporter assay; format: cell-based; conditions: ATA 10 μM, 48 h
# Procedure: NIH3T3 and HEK293 cells were obtained from the American Type Tissue Collection (ATCC, Manassas, VA) and cultured in DMEM containing 10% fetal bovine serum and penicillin/streptomycin. A TEAD dual luciferase reporter assay was performed as previously described. Cells were treated with vehicle control or ATA (10 μM) for 48 h before measuring the luciferase activity or processing the samples for RNA extraction. Each experiment was repeated at least 2–3 times.
# T2 sequence (Q15561 whole entry, one chain of several): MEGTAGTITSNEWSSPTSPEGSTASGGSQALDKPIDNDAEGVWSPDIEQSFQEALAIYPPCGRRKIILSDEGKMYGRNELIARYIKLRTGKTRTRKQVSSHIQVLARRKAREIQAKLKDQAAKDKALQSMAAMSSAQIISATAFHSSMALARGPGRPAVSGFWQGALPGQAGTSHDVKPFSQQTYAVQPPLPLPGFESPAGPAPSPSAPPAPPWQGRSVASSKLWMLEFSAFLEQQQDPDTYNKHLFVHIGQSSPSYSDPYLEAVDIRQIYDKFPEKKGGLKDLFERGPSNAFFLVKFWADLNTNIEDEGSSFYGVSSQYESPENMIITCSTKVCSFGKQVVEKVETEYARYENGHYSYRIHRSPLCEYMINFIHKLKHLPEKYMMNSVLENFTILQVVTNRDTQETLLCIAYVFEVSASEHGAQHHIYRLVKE
# T3 sequence (Q15561 217-434): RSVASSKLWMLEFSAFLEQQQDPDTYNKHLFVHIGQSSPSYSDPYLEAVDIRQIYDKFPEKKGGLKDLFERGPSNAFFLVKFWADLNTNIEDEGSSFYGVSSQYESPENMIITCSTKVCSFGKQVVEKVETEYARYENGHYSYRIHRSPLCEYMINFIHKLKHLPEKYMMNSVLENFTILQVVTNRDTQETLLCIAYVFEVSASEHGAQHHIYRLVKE
# T1 sequence (Q15561 217-434, one chain of several): as the sequence (Q15561 217-434) above
smiles,measurement,setting,value
"O=C(O)C1=CC(=C(c2ccc(O)c(C(=O)O)c2)c2ccc(O)c(C(=O)O)c2)C=CC1=O [ATA, aurintricarboxylic acid]",NRAS G12V-induced soft agar growth,[1],unaffected
same,"cytotoxicity, LDH release",HEK293 cells,did not show cytotoxicity
same,pIC50,[2],3.80
same,pIC50,[3],7.46
same,pKd,[4],5.52
same,TC-dependent increase of TEAD luciferase reporter activity,[5],significantly reduced

# From publication PMC9007350, “Aurintricarboxylic acid is a canonical disruptor of the TAZ-TEAD transcriptional complex” (PLoS ONE, 2022)
